Where no end group is shown, it is not given here.

Experimental findings from paper PMC6145916, “Interaction of mitochondrial fission factor with dynamin related protein 1 governs physiological mitochondrial function in vivo” (Scientific Reports, 2018) are described below.

The subject of one experiment is Mff-Drp1 interaction. Description: Co-immunoprecipitation of recombinant Drp1 with Mff. Format: binding, human. As to conditions: 1 µM P259, 2 hours at 4 °C, 200 ng Drp1, 200 ng adaptor, RIPA buffer; representative blot of two independent experiments. The text has this: Figure 1 Rational peptide design identifies a novel inhibitor of the Mff-Drp1 protein-protein interaction. (a) A scheme of the rationale behind the inhibitor design. […] Surface and ribbon diagrams of Drp1 structure (PDB, 4BEJ) with the GTPase, bundle signaling element (BSE), and stalk domains highlighted. (d) A heatmap representing sequence conservation of human proteins that contain a region similar to P259. Sequence conservation corresponds to the number of residues similar/identical to P259 from each sequence. […] The obtained graph is of the mean standardized response and ± s.e. as a function of time for n = 3 individual experiments, with 3 technical replicates each. […]
Protein binding to the surface was obtained through current measurements during a voltage sweep by a potentiostat. […] After calibration with 30 µL RIPA buffer for 3 minutes, […] of 100 nM protein was incubated over the surface for 3 minutes as sensor response w as measured. Disso ciation was measured by re-applying 30 µL of RIPA buffer. […]
The standardized response value was calculated by the following equation: […]
KD values were subsequently calculated using the binding and dissociation curves and the analysis software provided by the manufacturer (Nanomedical Diagnostics). […]
Protein content was measured using Bradford protein assay dye (Bio-Rad, CA, USA) and subsequently standardized. […]

Experiment [1] concerns Drp1 with Fis1/Mid49/Mid51. Description: Co-immunoprecipitation of recombinant Drp1 with the other adaptors. To be noted: 1 µM P259, 2 hours at 4 °C, 200 ng Drp1, 200 ng adaptor, RIPA buffer; representative blot of two independent experiments. Format: binding.
The subject of another experiment is wild-type MEFs. Description: Mitochondrial membrane potential (TMRM), WT MEFs. Format: cell-based, mouse. As to conditions: 20 µM P259 overnight, vs no peptide; 3 independent experiments, three technical replicates; ** p <0.01. On the procedure: Data are of 3 independent experiments with the whiskers calculated by the Turkey method. e. […]
determined by an unpaired, two -tailed t test). g. […]
control (no peptide treatment). Data are mean ± s.e. from 3 independent experiments. […]
and without phenol red. […] After incubation
HEPES, and without phenol red. […]
epifluorescence microscope with a 10X objective (Keyence). The Cy5 filter (Keyence) was used to autofocus on the mitochondria plane. […]
Mitochondrial membrane potential determination
After treatment, cells were washed with
Cells were incubated in a 37
°C incubator for 30 minutes. […]

The test system of a further experiment is Wild-type MEF cells. As to conditions: 4 µM P259, 15 minutes, mito-dendra2 photoconversion; 9 movies over two independent experiments.

Regarding “YGRKKRRQRRRGSGIIQLPEIVVV-NH2 (C-terminus assumed) [P259]”, the “Mff binding to co-immunoprecipitated recombinant Drp1” value in the experiment on Mff-Drp1 interaction is reported as “abolished Mff binding”. The “binding of other receptors (Fis1, Mid49, Mid51) to co-immunoprecipitated recombinant Drp1” value in experiment [1] is listed as “without affecting the binding of any other receptor”. The “mitochondrial membrane potential, WT MEFs” value with wild-type MEFs is given as “decreases”. Moreover, the “rate of mitochondrial fusion” value with Wild-type MEF cells is on record as “did not increase the rate of mitochondrial fusion”.
